Laboratory results reported in patent publication US10294230B2, “3,3-difluoropiperidine carbamate heterocyclic compounds as NR2B NMDA receptor antagonists” (Rugen Holdings (Cayman) Limited, priority 2015, dated 2019).
Like-named read-outs stand apart in the source and are kept apart here.

Key:
NR2B receptor = NR2B receptor (Rattus norvegicus (Rat), UniProt P35439+Q00960); assay: [3H] (E)-N1-(2-methoxybenzyl)-cinnamidine radioligand binding, rat brain membranes; conditions: for Ki: read-out: Ki at the NR2B receptor high affinity site
Protocol: (§1) This example describes NMDA receptor binding assays using two different radioligands, [^3H] […] An established binding assay using the non-selective NMDA receptor ligand [^3H] […] The binding assay method using the NR2B selective receptor ligand [^3H] […] This assay serves as a selective measure of NR2B receptor binding activity in native rat brain receptors. Briefly, the brains of Male Wistar rats were homogenized (Polytron) before centrifugation at 40,000×g for 15 minutes at 4° C. After 2 washes, the final pellet was homogenized and stored at −80° C. The protein concentration was determined by Bradford assay.
[^3H] […] Thus, using [^3H]
(§2) Test compounds were solubilized at 10 mM in DMSO. Then the dilutions were performed with a constant solvent concentration (1% DMSO) in the assay.
(§3) After incubation for 4.5 h at room temperature, the assays were filtered on GF/B filters pretreated with 0.3% (v/v) PEI with a Brandel system for [^3H] […] The experiment was performed in duplicate (n=2).

hERG channel = hERG channel (Homo sapiens (Human), UniProt Q12809); assay: hERG channel inhibition, whole cell patch clamp in HEK293 cells; format: cell-based; conditions: for IC50: HEK293, whole cell patch clamp
Protocol: The assay was performed on hERG channel stably expressed in HEK293 cells. The cells were cultured at 37° C. in a humidified CO2 incubator in the growth medium consisting of DMEM, 10% fetal bovine serum and antibiotics. Prior to the assay, the cells were seeded onto a 12 mm PDL-coated glass coverslip and cultured in a 35 mm Petri dish. After 16 to 40 hr culture, the cover slip was transferred into the chamber of OctaFlow perfusion system (ALA Instrument) and under a constant flow of extracellular solution (140 mM NaCl, 4 mM KCl, 1 mM MgCl2, 2 mM CaCl2, 10 mM HEPES, 10 mM D-glucose, pH 7.35, osmolarity 290). Whole cell patch clamping was performed with a glass micropipette filled with intracellular solution (120 mM KCl, 1.75 mM MgCl2, 5.4 mM CaCl2, 10 mM HEPES, 10 mM EGTA, and 4 mM ATP-K2, PH 7.2, osmolarity 310). Giga-seal was maintained during the test. The voltage control and current measurement were carried out using Axon amplifier 700B, Digidata 1440A and CLAMPEX10 software (Molecular Devices). Whole-cell hERG currents were recorded following the Petroski protocol: the cell was held at −80 mV, and the voltage step jumped from −80 to 30 mV and stay for 2 sec with a 20 ms prepulse at −40 mV. After depolarization, the voltage was decreased to −40 mV and stay for 2 sec, and returned back to −80 mV. Test compound was applied by quartz capillary tubes tip (200 μm inner diameter), and the flow rate was controlled at 2-3 ml/min with OctaFlow perfusion system. Different concentrations of the compound were applied to the cells for 5 min and the hERG current was measured three times before, during and after compound treatment. The data were analyzed using Clampfit 10 software (Molecular Devices) to generate IC50 values.

NMDA receptor = assay: [3H] MK-801 radioligand binding, rat brain membranes; conditions: 2 nM [3H] MK-801
Protocol: as §1, §2, §3

human NR1/NR2B = human NR1/NR2B (Homo sapiens (Human), UniProt Q05586+Q13224); assay: NR2B antagonist activity, Fluo-4 calcium influx in HEK293 cells; format: cell-based
Protocol: (§4) HEK293 cell lines stably expressing cloned human NR1/NR2B and NR1/NR2A, respectively, were established according to standard previously described methods (Hansen et al., Comb. Chem High Throughput Screen. 11:304, 2008). Activation of the NR2A or NR2B subtype of NMDA receptor with glutamate as an agonist and glycine co-agonist on these cells results in calcium influx, which can be monitored with fluorescent indicator Fluo-4.
(§5) For experiments, the cells were seeded onto poly-D-lysine-coated 96-well black plates with clear bottom (Corning) at a density of ˜50,000 cells/well. After overnight culture, the growth medium was removed from the wells and the cells were incubated at 37° C. for 60 min in Hanks buffer containing 4 μM fluo-4-AM (Invitrogen) and 0.1% bovine serum albumin (BSA). After dye-loading, the cells were washed three times with Hanks buffer and incubated for 10 min at room temperature with various concentrations of test compounds prepared in Hanks buffer with 0.1% BSA. The cell plates were placed onto FDSS pCell fluorescence reader (Hamamatsu). After 20 sec reading of background fluorescence, agonist glutamate at final 100 μM and co-agonist glycine at final 50 μM were added to the cells to activate the receptor, and the resulting fluorescence changes were recorded and quantified. Based on the changes in fluorescence intensity, the pharmacological effect of test compounds were analyzed and the IC50 values derived from a non-linear least squares fitting of the concentration-dependent response to a standard logistic equation using Prism (Graphpad, Inc): Amplitude=Max Amplitude/(1+(IC50/[antagonist])^n).

CYP2D6 = CYP2D6 (Homo sapiens (Human), UniProt P10635); assay: CYP P450 enzyme inhibition, pooled human liver microsome; format: in vitro ADME; conditions: pooled HLM, dextromethorphan 5 μM
Protocol: Those CYP isoforms and their corresponding probe substrates are as follows: CYP1A2 (phenacetin, 30 μM), CYP2C9 (tolutamide, 100 μM), CYP2C19 (S-mephenytoin, 40 μM), CYP2D6 (dextromethorphan, 5 μM) and CYP3A4 (midazolam, 1 μM). All probe substrates were used at concentrations near or below their Kms. For experiment, a reaction mixture of test compound at 10 μM or in serial dilution, CYP probe substrate described above and 0.2 mg/mL pooled HLM in phosphate buffer, pH 7.4 in a final volume of 200 μL was pre-incubated at 37° C. for 10 minutes in triplicate. The reaction was initiated by addition of NADPH at final concentration of 1 mM. The reaction was terminated after 10 minutes (CYP1A2, CYP2D6 and CYP3A4) or 30 minutes (CYP2C9 and CYP2C19) by addition of 100 μL ice-cold acetonitrile with internal standard (IS). The samples were then centrifuged at 13,000 rpm and the supernatants were injected to LC-MS/MS (Agilent Technologies) to quantify the concentration of the specific metabolites of the probe substrates formed by individual CYP450 isoforms. The inhibition ratio is calculated as: (Mt−M0)/Mwater×100% in which Mt and M0 represent the concentrations of the specific probe substrate metabolite, which was formed by individual CYP450 isoform, at the beginning and end of the reaction in the presence of test compound; while Mwater represents the concentration of the specific metabolite at the end of the reaction in the absence of test compound. Test compound concentration-dependent response data experiments performed in triplicate.

human NR1/NR2A = human NR1/NR2A (Homo sapiens (Human), UniProt Q05586+Q12879); assay: NR2A antagonist activity, Fluo-4 calcium influx in HEK293 cells; format: cell-based; conditions: Table 2.1, glutamate 100 μM, glycine 50 μM
Protocol: as §4, §5

[1] = tested on: electroconvulsive threshold (tonic convulsions); assay: Electroconvulsive Threshold Test (ECT); format: in vivo, rats; conditions: rats
Protocol: Test compound E1-8.2 was administered as the free base.
Rats were administered ECS (rectangular current: 0.6 ms pulse width, 1.5 s duration, 200 Hz) via earclip electrodes connected to a constant current shock generator (Ugo Basile: type 7801). Test compounds were administered by oral gavage (p.o.) 1 hour before the test at a dose volume of 5 mL/kg.
Treatment groups of 20 rats were exposed to ECS as follows: The first animal was exposed to 30 mA of ECS. […] (increases of 5 mA) until the first tonic convulsion was observed. Once the first tonic convulsion was observed, the intensity of ECS was decreased by 2 mA for the next animal and then decreased or increased by 2 mA from animal to animal depending on whether the previous animal convulsed or not. If the first animal did convulse (tonic convulsions) within 5 seconds, animal no2 is exposed to 25 mA, etc. . . . (decreases of 5 mA) until the absence of tonic convulsions was observed. At this point, the intensity of ECS was increased by 2 mA for the next animal and then decreased or increased by 2 mA from animal to animal depending on whether the previous animal convulsed or not. The minimum current intensity applied is 5 mA and the maximum 95 mA. The first 5 animals serve to approach threshold current and were not included in the analysis. The results are presented as the mean current intensity administered to the final 15 animals of a group. The test was performed blind. A positive percent change indicates an anticonvulsant effect. A negative percent change indicates a proconvulsant effect. The test substance was evaluated at 4 doses, typically using 0.5% dimethylsulfoxide, 4% hydroxypropyl-b-cyclodextrin water as a vehicle, and administered p.o. 60 minutes before ECS, and compared with a vehicle control group. Diazepam (16 mg/kg p.o.), administered under the same experimental conditions, was used as reference substance. The experiment included 6 groups. Data with the test substance was analyzed by comparing treated groups with vehicle control using one-way ANOVA followed by Dunnett's t tests.

[2] = tested on: KCl-induced cortical spreading depression; assay: Cortical Spreading Depression (CSD), aura phase of migraine model; format: in vivo; conditions: rats
Protocol: The cortical spreading depression model is utilized to investigate whether treatment with compounds of the present invention affect electrophysiological and hemodynamic events in a rat model of migraine.
Rats were anesthetized with 5% isoflurane (in 70% N2O and 30% O2; flow 300 ml/min) and placed in a stereotactic frame. […] The rectal temperature was maintained at 37.0±1.0° C. with a homeothermic blanket system. The skin was opened by a medial incision and retracted laterally. Three burr holes were drilled under saline cooling over the right hemisphere at the following coordinates (mm from bregma): (1) posterior 4.5, lateral, 2.0 (occipital cortex): KCl application site; (2) posterior 0.5, lateral 2.0 (parietal cortex): LDF recording site; (3) anterior 2, lateral 2 (frontal cortex): DC potential recording site. A laser-Doppler flow probe (Oxyflow, Oxford Optronics, UK) to monitor CBF and an invasive Ag/AgCl electrode for measuring direct current (DC) potential shifts were placed in the parietal and frontal cortex burr holes on the intact dura and in the cortex, respectively. The laser-Doppler flow probe was positioned in an area free of large pial and dural vessels to minimize a large-vessel contribution to the signal. For the DC-potential measurement, a reference electrode was fixed in the neck. Dura overlying the occipital cortex was gently removed and care was taken to avoid bleeding. After surgical preparation, the cortex was allowed to recover for 15 minutes under saline irrigation. A cotton ball (2 mm diameter) soaked with 1M KCl was placed on the pial surface and kept moist by placing 5 μl of KCl solution every 15 minutes. Test compound or vehicle was administered ten (10) minutes prior to CSD initiation. […] The number of KCl-induced CSDs was counted for 2 hours. The CBF and DC-potentials were monitored continuously starting from 5 minutes before KCl exposure.
Test compound E1-1.2 was administered as a mesylate salt (mpk based on molecular weight of the mesylate salt).
The data was collected in Windaq acquisition software (Dataq Instruments, USA) at 20 kHz. The raw data was analyzed in Clampfit program (Axon Instruments, USA). The signals were low pass filtered (cut off range 5-10000 Hz) that CSD episodes in DC and CBF could be confirmed. The following parameters were analyzed: i) the number, duration and amplitude of DC-potentials, and ii) the number and amplitude of CBF events.
Doses were given as milligram per kilogram (mpk). […] Bars represent mean±Standard Error of Mean (SEM), and differences were considered to be statistically significant at the P<0.05 level (n=8, * different from vehicle group). Statistical analysis was performed using StatsDirect statistical software. Differences between groups were analyzed by using 1-way ANOVA and Dunnett's post hoc test.

[3] = Table 2.1, HEK293 human NR1/NR2B, glutamate 100 μM, glycine 50 μM
[4] = E1-1.2 at various doses, MK-801 1.25 mg/kg

Sequence of human NR1/NR2B (Q13224 27-1484, other chains not shown): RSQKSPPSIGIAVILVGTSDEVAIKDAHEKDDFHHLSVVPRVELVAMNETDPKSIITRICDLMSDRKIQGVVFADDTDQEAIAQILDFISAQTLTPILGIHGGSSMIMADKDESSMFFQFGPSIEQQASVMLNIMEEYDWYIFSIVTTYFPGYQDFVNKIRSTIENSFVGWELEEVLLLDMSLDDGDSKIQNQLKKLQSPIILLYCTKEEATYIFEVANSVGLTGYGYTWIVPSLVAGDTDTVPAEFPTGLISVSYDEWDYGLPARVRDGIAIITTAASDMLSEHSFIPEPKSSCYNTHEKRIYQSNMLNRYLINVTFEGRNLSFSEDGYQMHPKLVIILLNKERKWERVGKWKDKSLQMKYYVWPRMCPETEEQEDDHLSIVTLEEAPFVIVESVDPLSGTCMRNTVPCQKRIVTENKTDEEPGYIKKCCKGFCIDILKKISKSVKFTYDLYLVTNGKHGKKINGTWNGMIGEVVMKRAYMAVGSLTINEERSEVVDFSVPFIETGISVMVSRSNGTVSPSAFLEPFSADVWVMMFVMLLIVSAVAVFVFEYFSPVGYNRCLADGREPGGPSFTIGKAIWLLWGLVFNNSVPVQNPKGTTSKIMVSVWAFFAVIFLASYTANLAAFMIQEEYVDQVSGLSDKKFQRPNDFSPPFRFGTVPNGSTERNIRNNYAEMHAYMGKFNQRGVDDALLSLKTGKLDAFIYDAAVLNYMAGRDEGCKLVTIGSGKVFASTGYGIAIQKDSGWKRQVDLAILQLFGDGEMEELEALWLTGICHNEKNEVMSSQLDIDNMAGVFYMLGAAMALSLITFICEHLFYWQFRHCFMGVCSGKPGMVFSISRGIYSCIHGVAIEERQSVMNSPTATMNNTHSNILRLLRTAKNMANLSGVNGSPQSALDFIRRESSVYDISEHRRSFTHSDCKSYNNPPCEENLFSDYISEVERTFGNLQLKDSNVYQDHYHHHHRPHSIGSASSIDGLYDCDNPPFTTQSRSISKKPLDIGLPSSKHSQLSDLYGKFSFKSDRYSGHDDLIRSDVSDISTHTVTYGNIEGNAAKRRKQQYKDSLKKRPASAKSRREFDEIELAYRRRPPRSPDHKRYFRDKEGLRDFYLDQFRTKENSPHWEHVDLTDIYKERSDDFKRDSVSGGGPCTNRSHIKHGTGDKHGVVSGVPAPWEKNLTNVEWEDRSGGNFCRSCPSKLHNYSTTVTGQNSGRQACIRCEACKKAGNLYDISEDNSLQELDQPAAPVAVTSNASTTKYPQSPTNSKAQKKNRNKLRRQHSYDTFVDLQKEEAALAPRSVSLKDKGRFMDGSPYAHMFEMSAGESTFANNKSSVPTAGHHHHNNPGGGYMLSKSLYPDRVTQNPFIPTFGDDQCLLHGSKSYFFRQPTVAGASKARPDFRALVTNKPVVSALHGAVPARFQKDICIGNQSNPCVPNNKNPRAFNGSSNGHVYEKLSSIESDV
Sequence of CYP2D6 (P10635 whole entry): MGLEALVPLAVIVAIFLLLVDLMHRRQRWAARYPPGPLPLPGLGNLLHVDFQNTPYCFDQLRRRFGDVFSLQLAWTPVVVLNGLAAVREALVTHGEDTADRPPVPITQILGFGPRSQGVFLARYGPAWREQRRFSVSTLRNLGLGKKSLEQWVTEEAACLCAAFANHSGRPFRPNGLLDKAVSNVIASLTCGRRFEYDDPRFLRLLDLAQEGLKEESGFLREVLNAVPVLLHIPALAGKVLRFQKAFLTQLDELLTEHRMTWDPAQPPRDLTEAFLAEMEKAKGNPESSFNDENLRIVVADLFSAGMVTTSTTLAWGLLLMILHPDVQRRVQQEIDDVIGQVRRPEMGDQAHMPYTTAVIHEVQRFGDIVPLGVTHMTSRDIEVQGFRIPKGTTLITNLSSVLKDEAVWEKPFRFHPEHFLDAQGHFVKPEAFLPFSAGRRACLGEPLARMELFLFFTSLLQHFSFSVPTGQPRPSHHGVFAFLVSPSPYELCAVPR
Sequence of human NR1/NR2A (Q12879 23-1464, other chains not shown): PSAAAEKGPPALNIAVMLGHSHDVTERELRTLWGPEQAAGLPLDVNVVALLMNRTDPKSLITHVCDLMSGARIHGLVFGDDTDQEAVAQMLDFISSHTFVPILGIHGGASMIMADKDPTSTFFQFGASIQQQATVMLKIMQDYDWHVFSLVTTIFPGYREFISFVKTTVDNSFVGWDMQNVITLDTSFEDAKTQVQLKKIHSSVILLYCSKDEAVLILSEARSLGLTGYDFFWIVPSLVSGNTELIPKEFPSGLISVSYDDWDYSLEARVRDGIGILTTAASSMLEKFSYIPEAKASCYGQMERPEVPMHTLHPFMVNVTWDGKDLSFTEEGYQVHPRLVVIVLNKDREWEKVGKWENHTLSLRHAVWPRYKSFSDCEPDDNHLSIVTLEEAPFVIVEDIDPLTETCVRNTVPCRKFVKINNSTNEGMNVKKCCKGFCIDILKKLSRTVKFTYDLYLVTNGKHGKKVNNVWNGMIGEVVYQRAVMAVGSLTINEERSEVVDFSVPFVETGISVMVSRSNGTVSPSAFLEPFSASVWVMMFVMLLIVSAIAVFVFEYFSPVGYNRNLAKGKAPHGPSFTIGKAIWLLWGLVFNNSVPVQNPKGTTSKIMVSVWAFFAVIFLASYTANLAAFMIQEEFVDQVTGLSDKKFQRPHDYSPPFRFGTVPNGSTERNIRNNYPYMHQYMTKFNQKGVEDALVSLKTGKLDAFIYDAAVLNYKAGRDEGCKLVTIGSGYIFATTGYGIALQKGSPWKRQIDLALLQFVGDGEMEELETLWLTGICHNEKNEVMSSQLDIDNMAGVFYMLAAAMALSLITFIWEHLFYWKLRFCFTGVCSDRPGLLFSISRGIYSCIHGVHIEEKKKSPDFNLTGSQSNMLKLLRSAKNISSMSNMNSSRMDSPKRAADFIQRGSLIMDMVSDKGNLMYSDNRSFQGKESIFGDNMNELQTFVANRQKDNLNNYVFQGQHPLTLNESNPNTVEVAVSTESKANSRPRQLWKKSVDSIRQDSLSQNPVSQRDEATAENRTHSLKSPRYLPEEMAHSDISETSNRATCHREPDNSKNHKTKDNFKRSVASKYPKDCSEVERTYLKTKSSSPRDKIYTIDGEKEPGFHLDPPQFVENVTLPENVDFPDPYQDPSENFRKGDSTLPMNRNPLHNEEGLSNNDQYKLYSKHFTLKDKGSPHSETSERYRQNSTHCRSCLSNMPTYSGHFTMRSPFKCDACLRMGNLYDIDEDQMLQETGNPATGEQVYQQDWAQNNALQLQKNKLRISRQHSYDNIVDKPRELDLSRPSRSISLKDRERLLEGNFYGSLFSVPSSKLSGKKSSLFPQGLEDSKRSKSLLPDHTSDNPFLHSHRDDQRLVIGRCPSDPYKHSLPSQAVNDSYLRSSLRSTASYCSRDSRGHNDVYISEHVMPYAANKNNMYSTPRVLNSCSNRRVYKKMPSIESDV
Sequence of NR2B receptor (Q00960 27-1482, other chains not shown): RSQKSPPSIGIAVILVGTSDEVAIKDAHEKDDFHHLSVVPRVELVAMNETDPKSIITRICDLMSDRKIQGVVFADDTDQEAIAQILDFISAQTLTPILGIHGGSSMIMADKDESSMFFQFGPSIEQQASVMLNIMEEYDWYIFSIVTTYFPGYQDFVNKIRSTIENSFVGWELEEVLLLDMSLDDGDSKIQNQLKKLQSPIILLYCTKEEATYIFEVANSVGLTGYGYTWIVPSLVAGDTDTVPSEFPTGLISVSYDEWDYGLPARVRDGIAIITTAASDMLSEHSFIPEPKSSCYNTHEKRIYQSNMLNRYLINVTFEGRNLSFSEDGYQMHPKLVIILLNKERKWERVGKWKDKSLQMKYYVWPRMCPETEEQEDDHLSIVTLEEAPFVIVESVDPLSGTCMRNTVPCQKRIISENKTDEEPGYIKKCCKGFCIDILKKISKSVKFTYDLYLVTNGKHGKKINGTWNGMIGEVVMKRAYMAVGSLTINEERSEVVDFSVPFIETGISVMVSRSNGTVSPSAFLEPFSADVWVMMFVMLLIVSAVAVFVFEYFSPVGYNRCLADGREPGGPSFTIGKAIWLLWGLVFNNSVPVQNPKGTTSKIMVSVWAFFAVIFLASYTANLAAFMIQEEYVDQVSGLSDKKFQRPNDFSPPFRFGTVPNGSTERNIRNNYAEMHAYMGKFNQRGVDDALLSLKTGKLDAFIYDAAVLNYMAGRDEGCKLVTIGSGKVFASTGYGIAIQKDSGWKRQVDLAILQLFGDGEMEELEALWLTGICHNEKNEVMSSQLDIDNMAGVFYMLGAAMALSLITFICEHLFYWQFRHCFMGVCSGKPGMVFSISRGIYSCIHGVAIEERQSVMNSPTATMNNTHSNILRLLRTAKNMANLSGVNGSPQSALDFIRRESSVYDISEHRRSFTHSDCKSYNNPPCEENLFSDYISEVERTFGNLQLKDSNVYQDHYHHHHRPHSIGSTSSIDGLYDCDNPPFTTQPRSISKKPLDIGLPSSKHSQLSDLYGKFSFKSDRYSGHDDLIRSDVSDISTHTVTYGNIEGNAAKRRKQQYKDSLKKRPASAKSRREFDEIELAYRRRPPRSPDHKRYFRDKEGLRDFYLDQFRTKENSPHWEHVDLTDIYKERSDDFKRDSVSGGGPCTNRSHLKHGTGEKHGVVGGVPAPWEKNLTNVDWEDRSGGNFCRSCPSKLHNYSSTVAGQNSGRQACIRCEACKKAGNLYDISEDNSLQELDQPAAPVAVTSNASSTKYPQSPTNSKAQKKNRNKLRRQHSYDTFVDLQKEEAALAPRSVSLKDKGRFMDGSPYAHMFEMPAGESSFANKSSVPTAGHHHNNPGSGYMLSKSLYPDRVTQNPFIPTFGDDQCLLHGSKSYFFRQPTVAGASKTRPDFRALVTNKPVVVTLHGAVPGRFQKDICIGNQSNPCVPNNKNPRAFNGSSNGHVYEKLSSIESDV

| Molecule | hERG @ 10 μM (%) (hERG channel) | partial effect on [3H] MK-801 binding (NMDA receptor) [%] | displacement of [3H] (E)-N1-(2-methoxybenzyl)-cinnamidine at the NR2B receptor high affinity site (NR2B receptor; rat brain membranes) [%] | IC50 (human NR1/NR2B; [3]) [nM] | IC50 (human NR1/NR2B; Table 2.2) [nM] | IC50 (human NR1/NR2B; Table 2.3) [nM] | CYP2D6 @ 10 μM (%) (CYP2D6) | further results |
| --- | --- | --- | --- | --- | --- | --- | --- | --- |
| COc1ccccc1CNC(=N)/C=C/c1ccccc1 [(E)-N1-(2-methoxybenzyl)-cinnamidine, reference compound] | – | – | – | – | – | – | – | Ki (NR2B receptor; rat brain membranes, [3H] (E)-N1-(2-methoxybenzyl)-cinnamidine): 0.18 nM |
| O=C(OCc1ccc(Cl)cc1)N1CC[C@H](CNc2nccn3cnnc23)C(F)(F)C1 [Compound E1-1.3, R-4-chlorobenzyl 4-(([1,2,4]triazolo[4,3-a]pyrazin-8-ylamino)methyl)-3,3-difluoropiperidine-1-carboxylate] | 19 | 41 | 97 | 14.8 | 14.8 | 14.8 | 37 | Ki (NR2B receptor): 2.34 nM; IC50 (human NR1/NR2A): > 10000 nM |
| CCc1ccc(COC(=O)N2CC[C@H](CNc3nccn4cnnc34)C(F)(F)C2)cc1 [Compound E1-1.5, R-4-ethylbenzyl 4-(([1,2,4]triazolo[4,3-a]pyrazin-8-ylamino)methyl)-3,3-difluoropiperidine-1-carboxylate] | – | 48 | 97 | – | – | – | – | – |
| Cc1ccc(COC(=O)N2CC[C@H](CNc3cncc4nncn34)C(F)(F)C2)cc1 [Compound E1-2.2, R-4-methylbenzyl 4-(([1,2,4]triazolo[4,3-a]pyrazin-5-ylamino)methyl)-3,3-difluoropiperidine-1-carboxylate] | 32 | – | – | 10.4 | 10.4 | 10.4 | 18 | IC50 (human NR1/NR2A): > 10000 nM |
| Cc1ccc(COC(=O)N2CC[C@H](CNc3ncc4cn[nH]c4n3)C(F)(F)C2)cc1 [Compound E1-8.2, (+)-R-4-methylbenzyl-4-((1H-pyrazolo[3,4-d]pyrimidin-6-ylamino)methyl)-3,3-difluoropiperidine-1-carboxylate] | 57 | 33 | 95 | 17 | 17 | 17 | 83 | electroconvulsive threshold, pro-/anticonvulsant activity ([1]; 0.5 and 2 mpk p.o., free base): modest proconvulsant activity; electroconvulsive threshold, pro-/anticonvulsant activity ([1]; 10 and 20 mpk p.o., free base): anticonvulsant activity; IC50 (hERG channel): 6800 nM; IC50 (CYP2D6): 5900 nM |
| Cc1ccc(COC(=O)N2CC[C@H](CNc3nc4ccccn4n3)C(F)(F)C2)cc1 [Compound E1-9.2, (+)-R-4-methylbenzyl 4-(([1,2,4]triazolo[1,5-a]pyridin-2-ylamino)methyl)-3,3-difluoropiperidine-1-carboxylate] | 38 | 34 | 97 | 48.2 | 48.2 | 48.2 | 14 | Ki (NR2B receptor): 11.3 nM |
| Cc1ccc(COC(=O)N2CC[C@H](CNc3ncccn3)C(F)(F)C2)cc1 [Compound E1-22.2, (+)-R-4-methylbenzyl 3,3-difluoro-4-((pyrimidin-2-ylamino)methyl)-piperidine-1-carboxylate] | – | – | – | – | – | – | – | IC50 (hERG channel): > 10000 nM |
| Cc1ccc(COC(=O)N2CC[C@@H](CNc3nccn4cnnc34)C(F)(F)C2)cc1 [Compound E2-1.2, (−)-S-4-methylbenzyl 4-(([1,2,4]triazolo[4,3-a]pyrazin-8-ylamino)methyl)-3,3-difluoropiperidine-1-carboxylate] | 22 | 36 | 98 | 156 | 156 | 156 | – | Ki (NR2B receptor): 74.3 nM; IC50 (human NR1/NR2A): > 10000 nM |
| FC(F)(F)c1ccc(C(F)(F)CN2CCC(Nc3ncnc4[nH]ncc34)CC2)cc1 [LX-1, reference compound] | – | – | – | – | – | – | 93 | – |
| CN1C(=O)CN=C(c2ccccc2)c2cc(Cl)ccc21 [diazepam, reference compound] | – | – | – | – | – | – | – | electroconvulsive threshold, pro-/anticonvulsant activity ([1]; 16 mpk p.o.): expected anticonvulsant activity |
| Cn1c(=O)c2[nH]cnc2n(C)c1=O [theophylline, reference compound] | – | – | – | – | – | – | – | electroconvulsive threshold, pro-/anticonvulsant activity ([1]; 128 mpk p.o.): expected proconvulsant activity |
| MK-801 [reference compound] | – | – | – | – | – | – | – | number of CBF events vs vehicle ([2]; E1-1.2 at 10 mg/kg, MK-801 at 1.25 mg/kg): decreased; amplitude of DC potentials vs vehicle [2, 4]: not statistically different; duration of DC potentials vs vehicle [2, 4]: increased |
